Data from the supplement of paper PMC8617591.

Key:
[1] = test system: Mycobacterium tuberculosis Erdman (autoluminescent); assay: GRinf, maximum normalised growth rate inhibition (three-drug combination) (unitless (-1 to 1)); higher = less effect (negative = killing)
Procedure: (§1)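 DiaMOND equipotent three-drug combination dose responses (10 doses, 1.5- or 2-fold spacing, centred on IC90) against autoluminescent M. tuberculosis Erdman in 8 in vitro models. Read-out is OD600, or luminescence for the intracellular and dormancy models, normalised to untreated wells. Hill-fit Einf, AUC25 and GRinf are potency metrics; FIC50 and FIC90 are total Loewe fractional inhibitory concentrations as log2 (negative = synergy).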

[2] = test system: Mycobacterium tuberculosis Erdman (autoluminescent); assay: AUC25, normalised area under dose response up to IC25 (three-drug combination) (fraction (0-1)); higher = more potent at low dose
Procedure: as §1

[3] = test system: Mycobacterium tuberculosis Erdman (autoluminescent); assay: total FIC90 (Loewe) at 90% inhibition, three-drug combination (log2); higher = more antagonistic
Procedure: as §1

[4] = test system: Mycobacterium tuberculosis Erdman (autoluminescent); assay: total FIC50 (Loewe) at 50% inhibition, three-drug combination (log2); higher = more antagonistic
Procedure: as §1

[5] = test system: Mycobacterium tuberculosis Erdman (autoluminescent); assay: Einf, fitted maximum growth inhibition of three-drug combination (fraction); higher = stronger maximal inhibition
Procedure: as §1

CC(C)/N=c1\cc2n(-c3ccc(Cl)cc3)c3ccccc3nc-2cc1Nc1ccc(Cl)cc1 [clofazimine] + NNC(=O)c1ccncc1 [isoniazid] + CO[C@H]1/C=C/O[C@@]2(C)Oc3c(C)c(O)c4c(O)c(c(/C=N/N5CCN(C6CCCC6)CC5)c(O)c4c3C2=O)NC(=O)/C(C)=C\C=C\[C@H](C)[C@H](O)[C@@H](C)[C@@H](O)[C@@H](C)[C@H](OC(C)=O)[C@@H]1C [rifapentine]
Conditions | AUC25, [2] | Einf, [5] | GRinf, [1] | total FIC50, [4] | total FIC90, [3]
in vitro model: acidic pH 5.7, time point: constant (~7 days, model-specific) | 0.0883 | 0.85 | -0.0449 | 0.415 | –
in vitro model: acidic pH 5.7, time point: terminal (~4-5 doublings, model-specific) | 0.09 | 0.989 | -0.185 | 0.259 | 0.468
in vitro model: intracellular J774, time point: constant = terminal | – | 0.954 | -0.131 | – | 0.169

Conditions | AUC25, [2] | Einf, [5] | GRinf, [1] | total FIC50, [4] | total FIC90, [3]
in vitro model: butyrate, time point: constant (~7 days, model-specific) | 0.0986 | 0.951 | -0.088 | 0.508 | 0.999
in vitro model: butyrate, time point: terminal (~4-5 doublings, model-specific) | 0.0792 | 0.98 | -0.0855 | 0.521 | 0.588
in vitro model: cholesterol 0.05 mM, time point: constant (~7 days, model-specific) | 0.118 | 0.666 | 0.0951 | 0.541 | –
in vitro model: cholesterol 0.05 mM, time point: terminal (~4-5 doublings, model-specific) | 0.0787 | 0.8 | -0.0213 | 1.11 | 1.88
in vitro model: cholesterol-high 0.2 mM, time point: constant (~7 days, model-specific) | 0.0889 | 0.959 | -0.471 | 0.542 | –
in vitro model: cholesterol-high 0.2 mM, time point: terminal (~4-5 doublings, model-specific) | 0.0744 | 0.999 | -0.743 | 0.993 | 0.67
in vitro model: dormancy (butyrate + nitrate, low O2), time point: constant (~7 days, model-specific) | 0.0787 | 0.9 | 0.166 | 0.0637 | -0.201
in vitro model: dormancy (butyrate + nitrate, low O2), time point: terminal (~4-5 doublings, model-specific) | 0.0623 | 0.989 | -0.337 | 0.174 | 0.32
in vitro model: standard 7H9 glycerol, time point: constant = terminal | 0.111 | 0.942 | -0.0519 | 0.0163 | 1.07
in vitro model: valerate, time point: constant (~7 days, model-specific) | 0.118 | 0.858 | 0.0326 | 0.882 | –
in vitro model: valerate, time point: terminal (~4-5 doublings, model-specific) | 0.0644 | 0.907 | 0.0296 | 0.418 | -0.138

CC(C)/N=c1\cc2n(-c3ccc(Cl)cc3)c3ccccc3nc-2cc1Nc1ccc(Cl)cc1 [clofazimine] + NNC(=O)c1ccncc1 [isoniazid] + CO[C@H]1/C=C/O[C@@]2(C)Oc3c(C)c(O)c4c(O)c(c(/C=N/N5CCN(C)CC5)c(O)c4c3C2=O)NC(=O)/C(C)=C\C=C\[C@H](C)[C@H](O)[C@@H](C)[C@@H](O)[C@@H](C)[C@H](OC(C)=O)[C@@H]1C [rifampicin]
Conditions | AUC25, [2] | Einf, [5] | GRinf, [1] | total FIC50, [4] | total FIC90, [3]
in vitro model: acidic pH 5.7, time point: constant (~7 days, model-specific) | 0.0827 | 0.859 | -0.00905 | 0.524 | –
in vitro model: acidic pH 5.7, time point: terminal (~4-5 doublings, model-specific) | 0.0711 | 0.977 | -0.102 | 0.542 | 0.223
in vitro model: intracellular J774, time point: constant = terminal | – | 0.983 | -0.28 | – | 0.112

Conditions | AUC25, [2] | Einf, [5] | GRinf, [1] | total FIC50, [4] | total FIC90, [3]
in vitro model: butyrate, time point: constant (~7 days, model-specific) | 0.107 | 0.958 | -0.146 | 0.388 | 0.605
in vitro model: butyrate, time point: terminal (~4-5 doublings, model-specific) | 0.082 | 0.978 | -0.104 | 0.318 | 0.248
in vitro model: cholesterol 0.05 mM, time point: constant (~7 days, model-specific) | 0.102 | 0.662 | 0.064 | 0.74 | –
in vitro model: cholesterol 0.05 mM, time point: terminal (~4-5 doublings, model-specific) | 0.0787 | 0.896 | 0.0504 | 1.25 | -0.29
in vitro model: cholesterol-high 0.2 mM, time point: constant (~7 days, model-specific) | 0.0653 | 0.891 | -0.205 | 0.286 | –
in vitro model: cholesterol-high 0.2 mM, time point: terminal (~4-5 doublings, model-specific) | 0.0563 | 0.996 | -0.68 | 0.929 | 0.197
in vitro model: dormancy (butyrate + nitrate, low O2), time point: constant (~7 days, model-specific) | 0.0885 | 0.876 | 0.253 | -0.0155 | -0.596
in vitro model: dormancy (butyrate + nitrate, low O2), time point: terminal (~4-5 doublings, model-specific) | 0.0839 | 0.988 | -0.19 | -0.403 | 0.28
in vitro model: standard 7H9 glycerol, time point: constant = terminal | 0.112 | 0.945 | -0.018 | -0.19 | 0.0305
in vitro model: valerate, time point: constant (~7 days, model-specific) | 0.112 | 0.866 | -0.116 | 0.565 | –
in vitro model: valerate, time point: terminal (~4-5 doublings, model-specific) | 0.0604 | 0.918 | 0.0831 | 0.286 | 0.147

CC(C)/N=c1\cc2n(-c3ccc(Cl)cc3)c3ccccc3nc-2cc1Nc1ccc(Cl)cc1 [clofazimine] + NNC(=O)c1ccncc1 [isoniazid] + COc1c(N2C[C@@H]3CCCN[C@@H]3C2)c(F)cc2c(=O)c(C(=O)O)cn(C3CC3)c12 [moxifloxacin]
Conditions | AUC25, [2] | Einf, [5] | GRinf, [1] | total FIC50, [4] | total FIC90, [3]
in vitro model: acidic pH 5.7, time point: constant (~7 days, model-specific) | 0.148 | 0.438 | 0.301 | – | –
in vitro model: acidic pH 5.7, time point: terminal (~4-5 doublings, model-specific) | 0.0974 | 0.923 | -0.33 | 0.581 | 0.708
in vitro model: intracellular J774, time point: constant = terminal | – | 1 | -0.424 | – | 0.642

Conditions | AUC25, [2] | Einf, [5] | GRinf, [1] | total FIC50, [4] | total FIC90, [3]
in vitro model: butyrate, time point: constant (~7 days, model-specific) | 0.0935 | 0.949 | -0.0926 | 0.57 | 1.04
in vitro model: butyrate, time point: terminal (~4-5 doublings, model-specific) | 0.0779 | 0.981 | -0.0848 | 0.531 | 0.768
in vitro model: cholesterol 0.05 mM, time point: constant (~7 days, model-specific) | 0.131 | 0.707 | -0.174 | 0.411 | –
in vitro model: cholesterol 0.05 mM, time point: terminal (~4-5 doublings, model-specific) | 0.119 | 0.919 | -0.228 | 0.344 | 0.0839
in vitro model: cholesterol-high 0.2 mM, time point: constant (~7 days, model-specific) | 0.102 | 0.943 | -0.266 | 0.253 | 0.868
in vitro model: cholesterol-high 0.2 mM, time point: terminal (~4-5 doublings, model-specific) | 0.0858 | 1 | -0.61 | 0.464 | 0.399
in vitro model: dormancy (butyrate + nitrate, low O2), time point: constant (~7 days, model-specific) | 0.094 | 0.929 | 0.151 | 0.252 | -0.33
in vitro model: dormancy (butyrate + nitrate, low O2), time point: terminal (~4-5 doublings, model-specific) | 0.0919 | 0.988 | -0.177 | 0.0561 | 1.09
in vitro model: standard 7H9 glycerol, time point: constant = terminal | 0.0829 | 0.977 | -0.209 | 0.374 | 0.44
in vitro model: valerate, time point: constant (~7 days, model-specific) | 0.079 | 0.84 | 0.0938 | 0.474 | –
in vitro model: valerate, time point: terminal (~4-5 doublings, model-specific) | 0.0672 | 0.917 | 0.0935 | 0.256 | 0.99
